27 compounds from patent publication US8263606B2 (Xenon Pharmaceuticals Inc., priority 2008, dated 2012) can be followed below.

SMILES strings stand for the structures. A value given as a limit tells only on which side of the number the result lay.

The target of one data set is CYP3A4 (Homo sapiens, UniProt P08684). The experiment in a line: Cytochrome P450 (CYP450) Inhibition Assay, CYP3A4 (Vivid fluorescence, BOMCC substrate). As to conditions: for inhibition at 10 µM: human, P450 Baculosomes (recombinant CYP3A4), probe BOMCC (Vivid substrate).
Chain of CYP3A4 (P08684 whole entry): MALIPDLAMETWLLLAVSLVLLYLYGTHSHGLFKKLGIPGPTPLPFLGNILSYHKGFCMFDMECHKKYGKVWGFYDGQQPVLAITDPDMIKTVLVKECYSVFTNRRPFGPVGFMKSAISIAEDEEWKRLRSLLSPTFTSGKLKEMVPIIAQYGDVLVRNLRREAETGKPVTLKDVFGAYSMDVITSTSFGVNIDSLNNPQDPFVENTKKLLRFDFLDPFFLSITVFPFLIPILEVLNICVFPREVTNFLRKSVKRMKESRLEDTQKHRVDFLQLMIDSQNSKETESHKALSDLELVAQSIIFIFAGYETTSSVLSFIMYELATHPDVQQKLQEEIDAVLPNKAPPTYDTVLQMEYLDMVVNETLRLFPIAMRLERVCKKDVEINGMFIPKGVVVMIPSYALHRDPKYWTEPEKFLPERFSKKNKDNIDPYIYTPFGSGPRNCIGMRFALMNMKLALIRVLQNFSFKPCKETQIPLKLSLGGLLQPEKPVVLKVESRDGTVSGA

`Cl.O=C1N(Cc2ccccn2)c2ccccc2C12COc1cc3c(cc12)OCCO3` (stereo not drawn) [Example 4.42, 1′-(pyridin-2-ylmethyl)-2,3-dihydrospiro[furo[2,3-g][1,4]benzodioxine-8,3′-indol]-2′(1′H)-one hydrochloride]: the melting point (as a rule, the temperature, or range, at which the solid turns liquid) was in the range of 206 to 208 °C. Besides, the “% Inhibition of CYP3A4” value on CYP3A4 (CYP3A4 isozyme, at 10 μM) is given as “A (percent inhibition of less than 50% at 10 μM)”.

`O=C1N(Cc2cccc(C(F)(F)F)n2)c2ccccc2C12COc1cc3c(cc12)OCCO3` (stereo not drawn) [Example 5.9, 1′-{[6-(trifluoromethyl)pyridin-2-yl]methyl}-2,3-dihydrospiro[furo[2,3-g][1,4]benzodioxine-8,3′-indol]-2′(1′H)-one]: the melting point fell in the range of 195 to 196 °C. Moreover, on CYP3A4, the inhibition (usually how much of the control response was suppressed) at 10 µM was > 50%.

In turn, `O=C1N(Cc2cccnc2C(F)(F)F)c2ccccc2C12COc1cc3c(cc12)OCCO3` (stereo not drawn) [Example 5.10, 1′-{[2-(trifluoromethyl)pyridin-3-yl]methyl}-2,3-dihydrospiro[furo[2,3-g][1,4]benzodioxine-8,3′-indol]-2′(1′H)-one] displayed a melting point of 219 to 220 °C. For the same compound, the inhibition at 10 µM at CYP3A4 is < 50%.

For the compound `O=C1N(Cc2nccnc2C(F)(F)F)c2ccccc2C12COc1cc3c(cc12)OCCO3` (stereo not drawn) [Example 5.11, 1′-{[3-(trifluoromethyl)pyrazin-2-yl]methyl}-2,3-dihydrospiro[furo[2,3-g][1,4]benzodioxine-8,3′-indol]-2′(1′H)-one], the melting point fell in the range of 230 to 232 °C. For the same compound, the inhibition at 10 µM on CYP3A4 is < 50%.

Regarding `O=C1N(Cc2cnccc2C(F)(F)F)c2ccccc2C12COc1cc3c(cc12)OCCO3` (stereo not drawn) [Example 5.12, 1′-{[4-(trifluoromethyl)pyridin-3-yl]methyl}-2,3-dihydrospiro[furo[2,3-g][1,4]benzodioxine-8,3′-indol]-2′(1′H)-one], the melting point was in the range of 131 to 132 °C. For the same compound, the inhibition at 10 µM on CYP3A4 was > 50%.

As to `COc1ncc(CN2C(=O)C3(COc4cc5c(cc43)OCCO5)c3ccccc32)cn1` (stereo not drawn) [Example 5.14, 1′-[(2-methoxypyrimidin-5-yl)methyl]-2,3-dihydrospiro[furo[2,3-g][1,4]benzodioxine-8,3′-indol]-2′(1′H)-one], the melting point is 248 to 249 °C. Further, the inhibition at 10 µM at CYP3A4 was < 50%.

`O=C1N(C[C@H]2COCCO2)c2ccccc2C12COc1cc3c(cc12)OCCCO3` (stereo partly drawn) [Example 8.13, 1′-[(2S)-1,4-dioxan-2-ylmethyl]-3,4-dihydro-2H-spiro[furo[2,3-h][1,5]benzodioxepine-9,3′-indol]-2′(1′H)-one]: the melting point was in the range of 137 to 139 °C. Moreover, the inhibition at 10 µM at CYP3A4 is < 50%.

In turn, `CN1C(=O)C2(COc3cc4c(cc32)OCCO4)c2c(C(=O)O)cccc21` (stereo not drawn) [Example 11.77, 1′-methyl-2′-oxo-1′,2,2′,3-tetrahydrospiro[furo[2,3-g][1,4]benzodioxine-8,3′-indole]-4′-carboxylic acid] displayed a melting point of 297 to 299 °C. Moreover, at CYP3A4, the inhibition at 10 µM was < 50%.

For the compound `CN1C(=O)C2(COc3cc4c(cc32)OCCO4)c2c(-c3ccc4ccc(=O)oc4c3)cccc21` (stereo not drawn) [Example 16.15, 1′-methyl-4′-(2-oxo-2H-chromen-7-yl)-2,3-dihydrospiro[furo[2,3-g][1,4]benzodioxine-8,3′-indol]-2′(1′H)-one], the melting point lay in the range of 228 to 229 °C. Besides, at CYP3A4, the inhibition at 10 µM was > 50%.

`CN1C(=O)C2(COc3cc4c(cc32)OCCO4)c2c1cccc2N1CCCC1=O` (stereo not drawn) [Example 16.16, 1′-methyl-4′-(2-oxopyrrolidin-1-yl)-2,3-dihydrospiro[furo[2,3-g][1,4]benzodioxine-8,3′-indol]-2′(1′H)-one]: the melting point lay in the range of 256 to 258 °C. For the same compound, the inhibition at 10 µM on CYP3A4 was < 50%.

`CN1C(=O)C2(COc3cc4c(cc32)OCCO4)c2c(N3CCOCC3)cccc21` (stereo not drawn) [Example 16.17, 1′-methyl-4′-morpholin-4-yl-2,3-dihydrospiro[furo[2,3-g][1,4]benzodioxine-8,3′-indol]-2′(1′H)-one] returned a melting point of 246 to 249 °C. At CYP3A4, the inhibition at 10 µM is < 50%.

`CN1C(=O)C2(COc3cc4c(cc32)OCCO4)c2c1cccc2-n1ccccc1=O` (stereo not drawn) [Example 16.18, 1′-methyl-4′-(2-oxopyridin-1(2H)-yl)-2,3-dihydrospiro[furo[2,3-g][1,4]benzodioxine-8,3′-indol]-2′(1′H)-one]: the melting point was in the range of 212 to 214 °C. At CYP3A4, the inhibition at 10 µM was < 50%.

`CN1C(=O)C2(COc3cc4c(cc32)OCCO4)c2c(N)cccc21` (stereo not drawn) [Example 16.19, 4′-amino-1′-methyl-2,3-dihydrospiro[furo[2,3-g][1,4]benzodioxine-8,3′-indol]-2′(1′H)-one]: the melting point lay within 252 to 254 °C. In addition, the inhibition at 10 µM on CYP3A4 was < 50%.

Take `CN1C(=O)C2(COc3cc4c(cc32)OCCO4)c2c(NC(=O)C3CCC3)cccc21` (stereo not drawn) [Example 16.20, N-(1′-methyl-2′-oxo-1′,2,2′,3-tetrahydrospiro[furo[2,3-g][1,4]benzodioxine-8,3′-indol]-4′-yl)cyclobutanecarboxamide]: the melting point fell in the range of 234 to 236 °C. Moreover, the inhibition at 10 µM at CYP3A4 is < 50%.

Regarding `CN1C(=O)C2(COc3cc4c(cc32)OCCO4)c2c(NS(C)(=O)=O)cccc21` (stereo not drawn) [Example 16.22, N-(1′-methyl-2′-oxo-1′,2,2′,3-tetrahydrospiro[furo[2,3-g][1,4]benzodioxine-8,3′-indol]-4′-yl)methanesulfonamide], the melting point lay in the range of 184 to 186 °C. For the same compound, the inhibition at 10 µM on CYP3A4 was < 50%.

`CN1C(=O)C2(COc3cc4c(cc32)OCCO4)c2c(NC(=O)C3CCCCC3)cccc21` (stereo not drawn) [Example 16.23, N-(1′-methyl-2′-oxo-1′,2,2′,3-tetrahydrospiro[furo[2,3-g][1,4]benzodioxine-8,3′-indol]-4′-yl)cyclohexanecarboxamide] yielded a melting point of 96 to 98 °C. Also, on CYP3A4, the inhibition at 10 µM is < 50%.

Consider `CN1C(=O)C2(COc3cc4c(cc32)OCCO4)c2c(NC(=O)C3CCCC3)cccc21` (stereo not drawn) [Example 16.24, N-(1′-methyl-2′-oxo-1′,2,2′,3-tetrahydrospiro[furo[2,3-g][1,4]benzodioxine-8,3′-indol]-4′-yl)cyclopentanecarboxamide], for which the melting point lay within 196 to 198 °C. Further, at CYP3A4, the inhibition at 10 µM was < 50%.

Compound `CC(=O)Nc1cccc2c1C1(COc3cc4c(cc31)OCCO4)C(=O)N2C` (stereo not drawn) [Example 16.25, N-(1′-methyl-2′-oxo-1′,2,2′,3-tetrahydrospiro[furo[2,3-g][1,4]benzodioxine-8,3′-indol]-4′-yl)acetamide] registered a melting point of 182 to 184 °C. Moreover, at CYP3A4, the inhibition at 10 µM was < 50%.

Turning to `CN1C(=O)C2(COc3cc4c(cc32)OCCO4)c2c(NC(=O)C3CC3)cccc21` (stereo not drawn) [Example 16.26, N-(1′-methyl-2′-oxo-1′,2,2′,3-tetrahydrospiro[furo[2,3-g][1,4]benzodioxine-8,3′-indol]-4′-yl)cyclopropanecarboxamide], the melting point was 266 to 268 °C. Also, the inhibition at 10 µM at CYP3A4 was < 50%.

With `CN1C(=O)C2(COc3cc4c(cc32)OCCO4)c2c(NC(=O)c3ccccc3)cccc21` (stereo not drawn) [Example 16.27, N-(1′-methyl-2′-oxo-1′,2,2′,3-tetrahydrospiro[furo[2,3-g][1,4]benzodioxine-8,3′-indol]-4′-yl)benzamide], the melting point fell in the range of 192 to 194 °C. Besides, the inhibition at 10 µM on CYP3A4 was > 50%.

Consider `COCC(=O)Nc1cccc2c1C1(COc3cc4c(cc31)OCCO4)C(=O)N2C` (stereo not drawn) [Example 16.28, 2-methoxy-N-(1′-methyl-2′-oxo-1′,2,2′,3-tetrahydrospiro[furo[2,3-g][1,4]benzodioxine-8,3′-indol]-4′-yl)acetamide], for which the melting point lay in the range of 237 to 239 °C. In addition, the inhibition at 10 µM on CYP3A4 was < 50%.

Turning to `CCC(=O)Nc1cccc2c1C1(COc3cc4c(cc31)OCCO4)C(=O)N2C` (stereo not drawn) [Example 16.29, N-(1′-methyl-2′-oxo-1′,2,2′,3-tetrahydrospiro[furo[2,3-g][1,4]benzodioxine-8,3′-indol]-4′-yl)propanamide], the melting point lay within 224 to 226 °C. In addition, on CYP3A4, the inhibition at 10 µM is < 50%.

`CCCCC(=O)Nc1cccc2c1C1(COc3cc4c(cc31)OCCO4)C(=O)N2C` (stereo not drawn) [Example 16.30, N-(1′-methyl-2′-oxo-1′,2,2′,3-tetrahydrospiro[furo[2,3-g][1,4]benzodioxine-8,3′-indol]-4′-yl)pentanamide] displayed a melting point of 182 to 183 °C. Besides, the inhibition at 10 µM on CYP3A4 is < 50%.

The compound `CN1C(=O)C2(COc3cc4c(cc32)OCCO4)c2c(NC(=O)C(C)(C)C)cccc21` (stereo not drawn) [Example 16.31, 2,2-dimethyl-N-(1′-methyl-2′-oxo-1′,2,2′,3-tetrahydrospiro[furo[2,3-g][1,4]benzodioxine-8,3′-indol]-4′-yl)propanamide] had a melting point of 182 to 184 °C. For the same compound, the inhibition at 10 µM at CYP3A4 was < 50%.

Consider `CCCCCC(=O)Nc1cccc2c1C1(COc3cc4c(cc31)OCCO4)C(=O)N2C` (stereo not drawn) [Example 16.32, N-(1′-methyl-2′-oxo-1′,2,2′,3-tetrahydrospiro[furo[2,3-g][1,4]benzodioxine-8,3′-indol]-4′-yl)hexanamide], for which the melting point fell in the range of 151 to 153 °C. For the same compound, at CYP3A4, the inhibition at 10 µM is < 50%.

In turn, `CCCCCCC(=O)Nc1cccc2c1C1(COc3cc4c(cc31)OCCO4)C(=O)N2C` (stereo not drawn) [Example 16.33, N-(1′-methyl-2′-oxo-1′,2,2′,3-tetrahydrospiro[furo[2,3-g][1,4]benzodioxine-8,3′-indol]-4′-yl)heptanamide] gave a melting point of 123 to 124 °C. For the same compound, on CYP3A4, the inhibition at 10 µM was > 50%.

The compound `COCCOCC(=O)Nc1cccc2c1C1(COc3cc4c(cc31)OCCO4)C(=O)N2C` (stereo not drawn) [Example 16.34, 2-(2-methoxyethoxy)-N-(1′-methyl-2′-oxo-1′,2,2′,3-tetrahydrospiro[furo[2,3-g][1,4]benzodioxine-8,3′-indol]-4′-yl)acetamide] showed a melting point of 122 to 123 °C. The inhibition at 10 µM on CYP3A4 is < 50%.
